# Measurements published in ChEMBL document CHEMBL1201862, “PubChem BioAssay data set” (2004).
#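 Protocol summary: plate cells (96-well), add compound at 5 concentrations, incubate 48 h, interpolate endpoints linearly. The concentration for 50% growth inhibition is given as GI50.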 Activity calls are given as the source filed them. Rule as the data show it: active = GI50 up to about 1.1 µM and inactive = higher.
# Assays:
# Experiment in all cases: NCI tumour cell line growth inhibition, 48 h
# MOLT-4 = test system: MOLT-4
# OVCAR-8 = test system: OVCAR-8
# MDA-MB-435 = test system: MDA-MB-435
# SK-MEL-2 = test system: SK-MEL-2
# KM12 = test system: KM12
# CCRF-CEM = test system: CCRF-CEM
# SF-295 = test system: SF-295
# SK-OV-3 = test system: SK-OV-3
# IGROV-1 = test system: IGROV-1
# A498 = test system: A498
# OVCAR-3 = test system: OVCAR-3
# OVCAR-5 = test system: OVCAR-5
# NCI-H23 = test system: NCI-H23
# DU-145 = test system: DU-145
# EKVX = test system: EKVX
# SN12C = test system: SN12C
# HOP-62 = test system: HOP-62
# HL-60 = test system: HL-60
# SW-620 = test system: SW-620
# 786-0 = test system: 786-0
# HT-29 = test system: HT-29
# LOX IMVI = test system: LOX IMVI
# M14 = test system: M14
# Malme-3M = test system: Malme-3M
# SNB-19 = test system: SNB-19
# HCT-15 = test system: HCT-15
# SR = test system: SR
# A549 = test system: A549
# RPMI-8226 = test system: RPMI-8226
# HOP-92 = test system: HOP-92
# NCI/ADR-RES = test system: NCI/ADR-RES
# SNB-75 = test system: SNB-75
# UACC-62 = test system: UACC-62
# SF-539 = test system: SF-539
# ACHN = test system: ACHN
# CAKI-1 = test system: CAKI-1
# MDA-MB-231 = test system: MDA-MB-231
# MCF7 = test system: MCF7
# COLO 205 = test system: COLO 205
# SK-MEL-5 = test system: SK-MEL-5
# T47D = test system: T47D
# MDA-N = test system: MDA-N
# Hs-578T = test system: Hs-578T
# UACC-257 = test system: UACC-257
# BT-549 = test system: BT-549
# K562 = test system: K562
# NCI-H226 = test system: NCI-H226
# TK-10 = test system: TK-10
# NCI-H522 = test system: NCI-H522
# UO-31 = test system: UO-31
# SK-MEL-28 = test system: SK-MEL-28
# RXF 393 = test system: RXF 393
# HCT-116 = test system: HCT-116
# SF-268 = test system: SF-268
# PC-3 = test system: PC-3
# NCI-H460 = test system: NCI-H460
# OVCAR-4 = test system: OVCAR-4
# U-251 = test system: U-251
# HCC 2998 = test system: HCC 2998
smiles,measurement,setting,value
Cn1c(N)c(Cc2ccc(Cl)cc2)c(=O)[nH]c1=O,GI50,MOLT-4,> 100 µM (inactive)
same,GI50,OVCAR-8,> 100 µM (inactive)
same,GI50,MDA-MB-435,> 100 µM (inactive)
same,GI50,SK-MEL-2,> 100 µM (inactive)
same,GI50,KM12,> 100 µM (inactive)
same,GI50,CCRF-CEM,> 100 µM (inactive)
same,GI50,SF-295,> 100 µM (inactive)
same,GI50,SK-OV-3,> 100 µM (inactive)
same,GI50,IGROV-1,> 100 µM (inactive)
same,GI50,A498,> 100 µM (inactive)
same,GI50,OVCAR-3,> 100 µM (inactive)
same,GI50,OVCAR-5,> 100 µM (inactive)
same,GI50,NCI-H23,> 100 µM (inactive)
same,GI50,DU-145,> 100 µM (inactive)
same,GI50,EKVX,> 100 µM (inactive)
same,GI50,SN12C,> 100 µM (inactive)
same,GI50,HOP-62,> 100 µM (inactive)
same,GI50,HL-60,> 100 µM (inactive)
same,GI50,SW-620,> 100 µM (inactive)
same,GI50,786-0,> 100 µM (inactive)
same,GI50,HT-29,> 100 µM (inactive)
same,GI50,LOX IMVI,> 100 µM (inactive)
same,GI50,M14,> 100 µM (inactive)
same,GI50,Malme-3M,> 100 µM (inactive)
same,GI50,SNB-19,> 100 µM (inactive)
same,GI50,HCT-15,> 100 µM
same,GI50,SR,> 100 µM (inactive)
same,GI50,A549,> 100 µM (inactive)
same,GI50,RPMI-8226,> 100 µM (inactive)
same,GI50,HOP-92,89.7 µM (inactive)
same,GI50,NCI/ADR-RES,> 100 µM (inactive)
same,GI50,SNB-75,62.8 µM (inactive)
same,GI50,UACC-62,> 100 µM (inactive)
same,GI50,SF-539,> 100 µM (inactive)
same,GI50,ACHN,> 100 µM (inactive)
same,GI50,CAKI-1,> 100 µM (inactive)
same,GI50,MDA-MB-231,> 100 µM (inactive)
same,GI50,MCF7,> 100 µM (inactive)
same,GI50,COLO 205,> 100 µM (inactive)
same,GI50,SK-MEL-5,> 100 µM (inactive)
same,GI50,T47D,> 100 µM (inactive)
same,GI50,MDA-N,> 100 µM (inactive)
same,GI50,Hs-578T,> 100 µM (inactive)
same,GI50,UACC-257,> 100 µM (inactive)
same,GI50,BT-549,> 100 µM (inactive)
same,GI50,K562,> 100 µM (inactive)
same,GI50,NCI-H226,> 100 µM (inactive)
same,GI50,TK-10,> 100 µM (inactive)
same,GI50,NCI-H522,> 100 µM (inactive)
same,GI50,UO-31,> 100 µM (inactive)
same,GI50,SK-MEL-28,> 100 µM (inactive)
same,GI50,RXF 393,> 100 µM (inactive)
same,GI50,HCT-116,> 100 µM (inactive)
same,GI50,SF-268,> 100 µM (inactive)
O/N=N/c1ccc([SH2]c2ccc3ccccc3c2)cn1,GI50,MOLT-4,1.62 µM (inactive)
same,GI50,OVCAR-8,19.1 µM (inactive)
same,GI50,SK-MEL-2,15.4 µM (inactive)
same,GI50,KM12,41.4 µM (inactive)
same,GI50,CCRF-CEM,3.04 µM (inactive)
same,GI50,SF-295,25.8 µM (inactive)
same,GI50,SK-OV-3,43.9 µM (inactive)
same,GI50,IGROV-1,32.7 µM (inactive)
same,GI50,A498,57.9 µM (inactive)
same,GI50,OVCAR-3,43.8 µM (inactive)
same,GI50,OVCAR-5,32.7 µM (inactive)
same,GI50,NCI-H23,12.2 µM (inactive)
same,GI50,DU-145,17.1 µM (inactive)
same,GI50,EKVX,23.6 µM (inactive)
same,GI50,SN12C,20.5 µM (inactive)
same,GI50,HOP-62,15.1 µM (inactive)
same,GI50,HL-60,3.97 µM (inactive)
same,GI50,SW-620,28.3 µM (inactive)
same,GI50,786-0,31.3 µM (inactive)
same,GI50,HT-29,34 µM (inactive)
same,GI50,M14,19.3 µM (inactive)
same,GI50,PC-3,8.85 µM (inactive)
same,GI50,Malme-3M,0.955 µM (active)
same,GI50,SNB-19,40.2 µM (inactive)
same,GI50,HCT-15,17.1 µM
same,GI50,SR,21.8 µM (inactive)
same,GI50,A549,33 µM (inactive)
same,GI50,NCI/ADR-RES,19.1 µM (inactive)
same,GI50,SNB-75,20.2 µM (inactive)
same,GI50,UACC-62,27.6 µM (inactive)
same,GI50,SF-539,41.9 µM (inactive)
same,GI50,ACHN,18.6 µM (inactive)
same,GI50,CAKI-1,17.7 µM (inactive)
same,GI50,MDA-MB-231,30.1 µM (inactive)
same,GI50,MCF7,17.9 µM (inactive)
same,GI50,COLO 205,20.2 µM (inactive)
same,GI50,SK-MEL-5,16.3 µM (inactive)
same,GI50,T47D,20.6 µM (inactive)
same,GI50,MDA-N,31.4 µM (inactive)
same,GI50,Hs-578T,43 µM (inactive)
same,GI50,UACC-257,36.1 µM (inactive)
same,GI50,BT-549,23 µM (inactive)
same,GI50,K562,16.8 µM (inactive)
same,GI50,NCI-H226,31.6 µM (inactive)
same,GI50,TK-10,28.6 µM (inactive)
same,GI50,NCI-H460,15.4 µM (inactive)
same,GI50,NCI-H522,17.5 µM (inactive)
same,GI50,OVCAR-4,> 100 µM (inactive)
same,GI50,UO-31,24.6 µM (inactive)
same,GI50,SK-MEL-28,32.7 µM (inactive)
same,GI50,RXF 393,< 0.01 µM (active)
same,GI50,HCT-116,15 µM (inactive)
same,GI50,U-251,19.3 µM (inactive)
same,GI50,HCC 2998,13.4 µM (inactive)
same,GI50,SF-268,22.3 µM (inactive)
